Legend:
Topoisomerase IV = biological target: T1, Topoisomerase IV (Staphylococcus aureus, UniProt P0C1S7+Q2FYS4); assay: Topo IV kDNA decatenation assay, agarose gel; type: biochemical
T1 construct: gene parC; with Topoisomerase IV subunit B (ParE); kDNA substrate

DNA gyrase = biological target: T2, DNA gyrase (Staphylococcus aureus, UniProt P0A0K8+P20831); assay: S. aureus gyrase supercoiling assay, relaxed pBR322, agarose gel; type: biochemical
T2 construct: gene gyrA; with DNA gyrase subunit B (GyrB); plasmid DNA
T2 sequence (P0A0K8 2-644): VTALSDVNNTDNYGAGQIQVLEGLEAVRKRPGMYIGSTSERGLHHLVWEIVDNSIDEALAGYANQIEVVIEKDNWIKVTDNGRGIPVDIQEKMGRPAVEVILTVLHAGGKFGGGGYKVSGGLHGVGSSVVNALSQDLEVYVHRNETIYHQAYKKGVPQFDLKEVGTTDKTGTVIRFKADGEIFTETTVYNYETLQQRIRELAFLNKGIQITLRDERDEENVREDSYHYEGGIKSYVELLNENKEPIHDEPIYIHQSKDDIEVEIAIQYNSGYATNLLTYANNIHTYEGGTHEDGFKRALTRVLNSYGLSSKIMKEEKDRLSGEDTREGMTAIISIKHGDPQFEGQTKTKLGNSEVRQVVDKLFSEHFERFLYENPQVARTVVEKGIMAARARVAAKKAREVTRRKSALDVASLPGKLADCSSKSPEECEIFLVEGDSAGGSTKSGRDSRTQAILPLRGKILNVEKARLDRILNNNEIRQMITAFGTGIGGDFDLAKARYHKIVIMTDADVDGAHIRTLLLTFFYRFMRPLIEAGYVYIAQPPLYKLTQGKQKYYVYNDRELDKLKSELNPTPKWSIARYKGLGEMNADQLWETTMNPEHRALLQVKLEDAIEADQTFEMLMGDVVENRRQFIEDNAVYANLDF
T2 sequence (P20831 whole entry): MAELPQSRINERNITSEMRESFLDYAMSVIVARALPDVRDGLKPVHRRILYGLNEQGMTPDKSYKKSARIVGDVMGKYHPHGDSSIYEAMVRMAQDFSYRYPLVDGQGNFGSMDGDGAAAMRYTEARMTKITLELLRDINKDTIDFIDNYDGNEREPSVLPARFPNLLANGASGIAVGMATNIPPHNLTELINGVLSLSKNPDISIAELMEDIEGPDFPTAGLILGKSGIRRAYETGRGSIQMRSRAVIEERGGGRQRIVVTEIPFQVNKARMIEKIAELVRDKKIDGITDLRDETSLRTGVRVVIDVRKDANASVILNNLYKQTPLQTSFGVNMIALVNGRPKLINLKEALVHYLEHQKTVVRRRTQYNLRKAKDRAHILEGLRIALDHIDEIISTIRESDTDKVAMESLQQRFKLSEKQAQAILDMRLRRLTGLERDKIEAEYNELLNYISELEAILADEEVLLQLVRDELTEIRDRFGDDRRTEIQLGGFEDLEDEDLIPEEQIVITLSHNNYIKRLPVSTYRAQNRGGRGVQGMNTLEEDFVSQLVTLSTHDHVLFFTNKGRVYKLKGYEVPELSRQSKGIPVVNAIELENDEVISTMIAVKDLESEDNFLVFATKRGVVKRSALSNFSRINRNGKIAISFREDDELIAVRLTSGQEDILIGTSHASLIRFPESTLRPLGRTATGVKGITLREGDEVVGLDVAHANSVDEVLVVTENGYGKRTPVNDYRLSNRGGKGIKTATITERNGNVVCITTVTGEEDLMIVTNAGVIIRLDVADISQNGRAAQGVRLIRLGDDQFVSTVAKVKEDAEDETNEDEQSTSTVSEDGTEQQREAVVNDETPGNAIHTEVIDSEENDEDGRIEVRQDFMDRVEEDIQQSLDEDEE

T1 sequence (Q2FYS4 whole entry): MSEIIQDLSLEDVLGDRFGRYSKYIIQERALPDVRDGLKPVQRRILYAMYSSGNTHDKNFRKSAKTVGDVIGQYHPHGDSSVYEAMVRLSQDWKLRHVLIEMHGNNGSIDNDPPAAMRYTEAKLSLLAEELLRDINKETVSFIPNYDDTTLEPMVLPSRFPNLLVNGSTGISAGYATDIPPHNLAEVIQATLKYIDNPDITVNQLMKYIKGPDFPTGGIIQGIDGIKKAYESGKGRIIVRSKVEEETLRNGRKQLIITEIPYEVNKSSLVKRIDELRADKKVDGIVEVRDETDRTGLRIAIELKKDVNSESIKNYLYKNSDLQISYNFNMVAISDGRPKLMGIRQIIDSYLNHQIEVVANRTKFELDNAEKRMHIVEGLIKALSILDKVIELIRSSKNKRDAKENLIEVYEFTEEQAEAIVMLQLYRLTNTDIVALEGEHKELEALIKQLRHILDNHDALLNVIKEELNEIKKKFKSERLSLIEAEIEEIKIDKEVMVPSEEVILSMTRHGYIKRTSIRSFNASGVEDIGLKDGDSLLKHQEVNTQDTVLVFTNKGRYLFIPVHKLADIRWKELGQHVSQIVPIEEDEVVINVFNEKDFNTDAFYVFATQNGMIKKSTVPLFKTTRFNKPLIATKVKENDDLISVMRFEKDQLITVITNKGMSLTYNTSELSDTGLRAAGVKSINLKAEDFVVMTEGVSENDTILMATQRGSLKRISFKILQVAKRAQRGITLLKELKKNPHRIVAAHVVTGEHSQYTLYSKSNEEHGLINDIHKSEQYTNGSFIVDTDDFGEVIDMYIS
T1 sequence (P0C1S7 whole entry): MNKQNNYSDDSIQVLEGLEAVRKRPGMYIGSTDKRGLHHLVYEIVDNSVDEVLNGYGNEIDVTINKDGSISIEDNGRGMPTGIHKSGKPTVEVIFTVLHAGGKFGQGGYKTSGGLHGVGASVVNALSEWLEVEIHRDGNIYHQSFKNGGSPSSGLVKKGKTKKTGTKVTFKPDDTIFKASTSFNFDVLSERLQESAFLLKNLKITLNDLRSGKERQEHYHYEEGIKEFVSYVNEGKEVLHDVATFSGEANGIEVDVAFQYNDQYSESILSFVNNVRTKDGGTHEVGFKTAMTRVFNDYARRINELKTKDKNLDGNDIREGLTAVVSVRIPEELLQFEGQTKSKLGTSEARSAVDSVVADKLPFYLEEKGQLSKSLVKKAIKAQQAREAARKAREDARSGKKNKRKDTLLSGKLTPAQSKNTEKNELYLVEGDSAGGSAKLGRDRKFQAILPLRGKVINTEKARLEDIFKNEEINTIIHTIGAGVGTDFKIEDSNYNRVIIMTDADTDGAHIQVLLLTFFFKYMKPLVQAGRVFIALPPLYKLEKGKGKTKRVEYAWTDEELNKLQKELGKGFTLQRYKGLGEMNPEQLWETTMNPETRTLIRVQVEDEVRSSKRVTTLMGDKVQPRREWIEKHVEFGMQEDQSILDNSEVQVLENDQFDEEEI

O=C(CN1CCN(c2cc3c(cc2F)c(=O)c(C(=O)O)cn3C2CC2)CC1)Nc1ccc(Cl)cc1 [Cpx-Drv]
IC50 (Topoisomerase IV): 3.83 µM
IC50 (DNA gyrase): 13.5 µM

From paper PMC10573198, “Synthesis, Physicochemical Characterization using a Facile Validated HPLC Quantitation Analysis Method of 4-Chloro-phenylcarbamoyl-methyl Ciprofloxacin and Its Biological Investigations” (International Journal of Molecular Sciences, 2023)
